The subject of experiment [1] is CDK8 (TCF/LEF luciferase reporter in HCT116 cells). As to the kind of experiment: Cell based TCF/LEF reporter assay (HCT116+TCF/LEF luciferase). To be noted: Homo sapiens, HCT-116, 24 h. An excerpt:
Determine Inhibitor Activity Against CDK8 in Cell Based TCF/LEF Reporter Assay
The colorectal carcinoma cell line HCT116 was stably transduced with lentivirus encoding the TCF/LEF promoter upstream of a luciferase reporter gene (Qiagen) and single cell clones expressing this construct (referred to as HCT116+TCF/LEF) were isolated. HCT116 express endogenous mutant β-catenin^3, resulting in up-regulation of transcription through the TCF/LEF promoter. Expression of the TCF/LEF reporter construct in HCT116 results in constitutive expression of luciferase. Treatment of the cells with inhibitors of components of the β-catenin signaling pathway (such as CDK8) results in decreased expression of luciferase. The assay is performed as follows. The HCT116+TCF/LEF cell line is seeded in a 96 well plate in 50 μL of culture media at 1×10^4 cells/well and incubated at 37° C. overnight. Serial dilutions of compounds (in total volume of 50 μL culture media) are added to the cells and incubated at 37° C. for 24 hours. 4 wells of DMSO treated cells serve as high controls and cells treated with 10 uM of the reference compound CCT251545 (a known CDK8 inhibitor)^4 serve as low controls. The viability of the cells is assayed by the addition of […] reagent (Promega) followed by 30 minute incubation at 37° C. and quantification of the fluorescent signal (Ex400/Em505). The luciferase expression is then assayed by the addition of 25 μL ONE-Glo reagent (Promega) followed by 10 minute incubation at room temperature and quantification of the luminescence signal. The luminescence signal is normalized to the fluorescence signal to correct for any loss in cell viability over the 24 hour compound incubation period. The percentage inhibition at individual concentrations relative to high and low controls is calculated. The data are analyzed by using nonlinear regression to generate IC50 values.
(Reporter assays use an easily measured gene product as a stand-in for the process of interest.)

The test system of experiment [2] is CDK8 (phosphorylation of STAT1 at serine 727 in A549 cells). As to the kind of experiment: Cell based Phospho-STAT1 assay (IFNγ-stimulated A549 cells, AlphaLISA). To be noted: Homo sapiens, A549, A549 cells, phospho-STAT1 after IFNγ stimulation. The essentials: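 A549 cells given serial compound dilutions for 1 h at 37 °C, then stimulated with IFNγ at 10 ng/mL final for 30 min. Lysate STAT1 Ser727 phosphorylation measured by AlphaLISA; % inhibition vs stimulated/unstimulated DMSO controls, IC50 by nonlinear regression.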
Background: In Alpha technology, singlet oxygen from a donor bead excites a nearby acceptor bead.

Turning to `COc1ccc2cc(-c3cnc4[nH]ccc4c3N3CCC(C#N)CC3)ccc2n1` [Compound P-0221, 1-(5-(2-methoxyquinolin-6-yl)-1H-pyrrolo[2,3-b]pyridin-4-yl)piperidine-4-carbonitrile], the IC50 in experiment [1] and in experiment [2] was 0.1 to 100 nM throughout.
Consider `COc1ccc2cc(-c3cnn4cccc(C#CC(C)(C)O)c34)ccc2n1` [Compound P-0282, 4-(3-(2-methoxyquinolin-6-yl)pyrazolo[1,5-a]pyridin-4-yl)-2-methylbut-3-yn-2-ol], for which the IC50 in experiment [1] and in experiment [2] was 100 to 1000 nM throughout.
With `Cn1cc(-c2ccc(-c3cnc4cccc(N5CCC6(CC5)C(=O)Nc5ccccc56)n34)cc2)cn1` [Compound P-0454, 1′-(3-(4-(1-methyl-1H-pyrazol-4-yl)phenyl)imidazo[1,2-a]pyridin-5-yl)spiro[indoline-3,4′-piperidin]-2-one], the IC50 in experiment [1] and in experiment [2] was 0.1 to 100 nM in each case.
In the case of `N#CC1CCN(c2cccn3ncc(-c4ccc(OC5CCCCC5)cc4)c23)CC1` [Compound P-0265, 1-(3-(4-(cyclo-hexyloxy)phenyl)pyrazolo[1,5-a]pyridin-4-yl)piperidine-4-carbonitrile], the IC50 in experiment [1] and in experiment [2] was 1000 to 10000 nM each time.
In the case of `CCCS(=O)(=O)Nc1ccc2cc(-c3cnn4ccnc(C5=CCC(C#N)CC5)c34)ccc2c1` (centres unmarked) [Compound P-0060, N-(6-(4-(4-cyanocyclohex-1-en-1-yl)pyrazolo[1,5-a]pyrazin-3-yl)naphthalen-2-yl)propane-1-sulfonamide], the 50% inhibitory concentration (IC50) in experiment [1] and in experiment [2] was 0.1 to 100 nM throughout.
In the case of `CC(C)(O)Cn1cc(-c2ccc(-c3cnn4ccnc(C#CC(C)(C)C(N)=O)c34)cc2)cn1` [Compound P-0110, 4-(3-(4-(1-(2-hydroxy-2-methylpropyl)-1H-pyrazol-4-yl)phenyl)pyrazolo[1,5-a]pyrazin-4-yl)-2,2-dimethylbut-3-ynamide], the IC50 in experiment [1] and in experiment [2] was 0.1 to 100 nM each time.
As to `CC(C)(O)Cn1cc(-c2ccc(-c3cnn4ccnc(C5CCC(C#N)CC5)c34)c(F)c2)cn1` (centres unmarked) [Compound P-0001, (1s,4s)-4-(3-(2-fluoro-4-(1-(2-hydroxy-2-methylpropyl)-1H-pyrazol-4-yl)phenyl)pyrazolo[1,5-a]pyrazin-4-yl)cyclohexane-1-carbonitrile], the IC50 in experiment [1] and in experiment [2] was 0.1 to 100 nM throughout.
Take `CC(C)(C#Cc1cccn2ncc(-c3ccc(-c4cnn(CC(F)F)c4)cc3)c12)C(N)=O` [Compound P-0467, 4-(3-(4-(1-(2,2-difluoroethyl)-1H-pyrazol-4-yl)phenyl)pyrazolo[1,5-a]pyridin-4-yl)-2,2-dimethylbut-3-ynamide]: the IC50 in experiment [1] and in experiment [2] was 0.1 to 100 nM each time.
Take `COc1ncc(C#Cc2cnc3cccc(C4=CCC(C#N)CC4)n23)cn1` (centres unmarked) [Compound P-0314, 4-(3-((2-methoxypyrimidin-5-yl)ethynyl)imidazo[1,2-a]pyridin-5-yl)cyclohex-3-ene-1-carbonitrile]: the IC50 in experiment [1] and in experiment [2] was 0.1 to 100 nM each time.
`CC(C)(O)C#Cc1cccn2ncc(-c3ccc4cc(C(N)=O)ccc4c3)c12` [Compound P-0191, 6-(4-(3-hydroxy-3-methylbut-1-yn-1-yl)pyrazolo[1,5-a]pyridin-3-yl)-2-naphthamide]: the IC50 – broadly, the concentration at which inhibition is half-maximal – in experiment [1] fell in the range of 100 to 1000 nM; in experiment [2], 0.1 to 100 nM.
In the same order, the values of `Cn1ccc(-c2ccc(-c3cnn4cccc(C#CC(C)(C)O)c34)cc2)n1` [Compound P-0226, 2-methyl-4-(3-(4-(1-methyl-1H-pyrazol-3-yl)phenyl)pyrazolo[1,5-a]pyridin-4-yl)but-3-yn-2-ol] are 0.1 to 100 nM and 0.1 to 100 nM.
The like results for `Cc1n[nH]c2cc(-c3cnn4ccnc(C5=CCC(C#N)CC5)c34)ccc12` (centres unmarked) [Compound P-0071, 4-(3-(3-methyl-1H-indazol-6-yl)pyrazolo[1,5-a]pyrazin-4-yl)cyclohex-3-ene-1-carbonitrile] were, in that order, 0.1 to 100 nM and 0.1 to 100 nM.
The like results for `Cn1cc(-c2ccc(-c3cnn4ccnc(C#CC(C)(C)O)c34)cc2)cn1` [Compound P-0274, 2-methyl-4-(3-(4-(1-methyl-1H-pyrazol-4-yl)phenyl)pyrazolo[1,5-a]pyrazin-4-yl)but-3-yn-2-ol] were, in that order, 0.1 to 100 nM and 0.1 to 100 nM.
Consider `Cn1cc(-c2ccc(-c3cnn4cccc(C#CC(C)(C)N)c34)cc2)cn1` [Compound P-0309, 2-methyl-4-(3-(4-(1-methyl-1H-pyrazol-4-yl)phenyl)pyrazolo[1,5-a]pyridin-4-yl)but-3-yn-2-amine], for which the values for the IC50 in experiment [1] and in experiment [2] were 100 to 1000 nM and 0.1 to 100 nM, respectively.
In the same order, the values of `CC(C)(O)C#Cc1cccn2ncc(-c3ccc(-c4cn[nH]c4)cc3)c12` [Compound P-0229, 4-(3-(4-(1H-pyrazol-4-yl)phenyl)pyrazolo[1,5-a]pyridin-4-yl)-2-methylbut-3-yn-2-ol] are 0.1 to 100 nM and 0.1 to 100 nM.
Turning to `Cn1cc(-c2ccc(-c3cnc4[nH]ccc4c3N3CCC4(CC3)C(=O)Nc3ccccc34)cc2)cn1` [Compound P-0272, 1′-(5-(4-(1-methyl-1H-pyrazol-4-yl)phenyl)-1H-pyrrolo[2,3-b]pyridin-4-yl)spiro[indoline-3,4′-piperidin]-2-one], the half-maximal inhibitory concentration (IC50) in experiment [1] fell in the range of 0.1 to 100 nM; in experiment [2], 100 to 1000 nM.
The like results for `Cn1cc(-c2ccc(-c3cnn4cccc(N5CCC(F)(C#N)CC5)c34)cc2)cn1` [Compound P-0293, 4-fluoro-1-(3-(4-(1-methyl-1H-pyrazol-4-yl)phenyl)pyrazolo[1,5-a]pyridin-4-yl)piperidine-4-carbonitrile] were, in that order, 1000 to 10000 nM and 0.1 to 100 nM.
As to `NC(=O)C1CC=C(c2cccn3ncc(-c4ccc(-n5ccnn5)cc4)c23)CC1` (centres unmarked) [Compound P-0196, 4-(3-(4-(1H-1,2,3-triazol-1-yl)phenyl)pyrazolo[1,5-a]pyridin-4-yl)cyclohex-3-ene-1-carboxamide], the IC50 fell in the range of 100 to 1000 nM in experiment [1] and 0.1 to 100 nM in experiment [2].
In the same order, the values of `N#CC1CC=C(c2cccn3ncc(-c4ccc(OCC(O)CN5CCCCC5)cc4)c23)CC1` (centres unmarked) [Compound P-0128, 4-(3-(4-(2-hydroxy-3-(piperidin-1-yl)propoxy)phenyl)pyrazolo[1,5-a]pyridin-4-yl)cyclohex-3-ene-1-carbonitrile] are 0.1 to 100 nM and 0.1 to 100 nM.
As for `Cn1ncc2cc(-c3cnc4[nH]ccc4c3C3=CCC(C#N)CC3)ccc21` (centres unmarked) [Compound P-0358, 4-(5-(1-methyl-1H-indazol-5-yl)-1H-pyrrolo[2,3-b]pyridin-4-yl)cyclohex-3-ene-1-carbonitrile], the IC50 in experiment [1] and in experiment [2] was 0.1 to 100 nM throughout.
With `N#CC1CCC(c2nccn3ncc(-c4ccc(-c5cnn(CC6(C#N)CC6)c5)c(F)c4)c23)CC1` (centres unmarked) [Compound P-0018, (1s,4s)-4-(3-(4-(1-((1-cyanocyclopropyl)methyl)-1H-pyrazol-4-yl)-3-fluorophenyl)pyrazolo[1,5-a]pyrazin-4-yl)cyclohexane-1-carbonitrile], the IC50 in experiment [1] and in experiment [2] was 0.1 to 100 nM throughout.
Take `N#CC1CC=C(c2nccn3ncc(-c4ccc(OCC5CC5)c(Cl)c4)c23)CC1` (centres unmarked) [Compound P-0038, 4-(3-(3-chloro-4-(cyclopropyl-methoxy)phenyl)pyrazolo[1,5-a]pyrazin-4-yl)cyclohex-3-ene-1-carbonitrile]: the IC50 in experiment [1] and in experiment [2] was 0.1 to 100 nM each time.
